Assay results as given in US12344610B2, “APOL1 inhibitors and methods of use” (Maze Therapeutics, Inc., priority 2022, dated 2025).
Where two headings read alike, the source gives them in different places.

Experiments:
Type in all cases: cell-based
[1] = test system: HEK293 cells overexpressing APOL1 G2; assay: APOL1 G2 HEK293 cell rescue assay (reversal of cell death caused by overexpression of APOL1); conditions: geometric mean of at least 2 assay runs, † = single assay run
Method in brief: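 EC50 is the half-maximal effective concentration for reversing cell death driven by APOL1 G2 overexpression in HEK293 cells. Reported as geometric mean of at least 2 runs on separate days, each run averaging duplicate wells per plate; some values from a single run.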

[2] = test system: HEK293 clonal cell line overexpressing APOL1 G1; assay: APOL1 G1 HEK293 cell rescue assay (Example B3); conditions: geometric mean of at least 2 runs, † = single run, ¥ = concentration at 50% rescue estimated (no sigmoidal curve)
Method in brief: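 HEK293 clonal line overexpressing APOL1 G1; EC50 is half-maximal reversal of APOL1-induced cell death. Values are the geometric mean of ≥2 runs on separate days, each run the average of duplicate wells. Where no sigmoidal curve could be fitted, the concentration giving 50% rescue was estimated.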

[3] = test system: Trypanosoma brucei Lister 427 VSG221 with APOL1 G0 recombinant protein; assay: APOL1 G0 trypanosome cell rescue assay (Example B5); conditions: geometric mean of at least 2 assay runs, † = single assay run
Protocol: (§1) APOL1 G0/G1/G2 viability assay for measurement of cytotoxicity reversal by compound in trypanosomes (APOL1 G0/G1/G2 trypanosome cell rescue assay).
(§2) APOL1 protein expression and purification. The mature from of APOL1 proteins, residues 28-398, were expressed from a pET28a vector with an N-terminal His-tag and TEV cleavage site. Proteins were expressed in Escherichia coli BL21-CodonPlus (DE3)-RIPL cells. Liter cultures of terrific broth were grown at 37° C. until an OD600 of ˜0.8 was reached and then induced with isopropyl β-D-1-thiogalactopyranoside (IPTG; final concentration of 500 μM). Afterwards, cultures were grown for 3 hours at 37° C. For protein purification, cell pellets were resuspended in lysis buffer (50 mM Tris, pH 8.5, 5 mM EDTA, 0.5 mM DTT, 0.5 mM PMSF) supplemented with a cocktail of protease inhibitors. Cells were lysed by sonication, centrifuged, and the resulting pellet was collected. The homogenized pellet was resuspended in wash buffer (50 mM Tris, pH 8.5, 0.5 M NaCl, 5 mM EDTA, 0.5 mM DTT, 0.5 mM PMSF, protease inhibitor cocktail) and collected by centrifugation. Inclusion body dissolution was then conducted as previously reported (PNAS 112(9) (2015) 2894-2899; www.pnas.org/cgi/doi/10.1073/pnas.1421953112; herein incorporated by reference in its entirety). The solubilized APOL1 protein was applied to a nickel column (HisTrap, GE Life Sciences) preequilibrated in buffer A (50 mM Tris, pH 8.5, 0.15 M NaCl, 1% zwittergent 3-14, protease inhibitor cocktail). The resin was washed with buffer B (50 mM Tris, pH 8.5, 0.15 M NaCl, 0.1% DDM) and TEV cleavage was conducted on column overnight. Afterwards, the column was washed with buffer B, followed by His-washing buffer (50 mM Tris, pH 8.5, 0.15 M NaCl, 0.1% DDM, 10 mM imidazole). The protein was then removed from the resin using His-elution buffer (50 mM Tris, pH 8.5, 0.15 M NaCl, 0.1% DDM, 250 mM imidazole). The sample was further purified by size exclusion chromatography using a Superdex 200 Increase column (GE Life Sciences) in 50 mM Tris, pH 8.5, 0.15 M NaCl, and 0.1% DDM buffer. All APOL1 proteins (G0, G1, and G2) were generated at Viva Biotech (Shanghai) Ltd.
(§3) Modified HMI-9 media preparation (https://tryps.rockefeller.edu/trypsru2_culture_media_preparation.html; herein incorporated by reference in its entirety). Trypanosomes were cultured in modified HMI-9 media consisting of IMDM (ThermoFisher, 12440053), 10% heat-inactivated FBS (Gibco, 10082-147), 10% Serum Plus (Sigma-Aldrich, 14008C), 1×HMI-9 supplement stock, and 1% hypoxanthine stock. The 10×HMI-9 supplement stock was made by dissolving 280 mg bathocuproine disulfonic acid (Sigma-Aldrich, 146625), 1820 mg cysteine (add after bathocuproine) (Sigma-Aldrich, 30089), 1100 mg pyruvic acid (Sigma-Aldrich, 107360), 100 mg uracil (Sigma-Aldrich, U0750), 100 mg cytosine (Sigma-Aldrich, C3506) and 140 μL 2-mercaptoethanol (Sigma-Aldrich, M3148) in 1000 mL of water. The resulting solution was aliquoted and stored at −20° C. The hypoxanthine stock was made by dissolving 4 g of NaOH into 1000 mL of water. Afterwards, 13.6 g hypoxanthine (Sigma-Aldrich, H9377) was added to this mixture. The resulting solution was aliquoted and stored at −20° C.
(§4) Assay Setup. Trypanosoma brucei Lister 427 VSG221 (ATCC, PRA-382) cells were cultured in modified HMI-9 media. All experiments were performed in 384-well, white, solid bottom, tissue culture treated plates (Greiner, 781080). Assay ready plates were generated with duplicate 11-point compound dilution series that consisted of 2-fold stepwise dilutions (0.4% DMSO final). To each well, was added 20 μL of 2 μg/mL of APOL1 G0, G1, or G2 recombinant protein in modified HMI-9 media using a MultiDrop Combi (final APOL1 protein concentration=[…]). Trypanosomes were counted using a hemacytometer and diluted in modified HMI-9 media to a concentration of 1.25×10^4 cell/mL. […]

[4] = test system: Trypanosoma brucei Lister 427 VSG221 with APOL1 G1 recombinant protein; assay: APOL1 G1 trypanosome cell rescue assay (Example B5); conditions: geometric mean of at least 2 assay runs, † = single assay run
Protocol: as §1, §2, §3, §4

[5] = test system: Trypanosoma brucei Lister 427 VSG221 with APOL1 G2 recombinant protein; assay: APOL1 G2 trypanosome cell rescue assay (Example B5); conditions: geometric mean of at least 2 assay runs, † = single assay run
Protocol: as §1, §2, §3, §4

[6] = Homo sapiens, HEK293, HEK293 overexpressing APOL1 G2
[7] = Homo sapiens, HEK293, HEK293 clonal line overexpressing APOL1 G1
[8] = Trypanosoma brucei, 20 h, read-out: APOL1 G0 Trypanosome Rescue EC50, Trypanosoma brucei Lister 427 VSG221 with APOL1 G0 recombinant protein, 20 hours, CellTiter-Glo
[9] = Trypanosoma brucei, 20 h, read-out: APOL1 G1 Trypanosome Rescue EC50, Trypanosoma brucei Lister 427 VSG221 with APOL1 G1 recombinant protein, 20 hours, CellTiter-Glo
[10] = Trypanosoma brucei, 20 h, read-out: APOL1 G2 Trypanosome Rescue EC50, Trypanosoma brucei Lister 427 VSG221 with APOL1 G2 recombinant protein, 20 hours, CellTiter-Glo
[11] = HEK293 clonal line overexpressing APOL1 G1
[12] = read-out: APOL1 G1 Trypanosome Rescue EC50, Trypanosoma brucei Lister 427 VSG221 with APOL1 G1 recombinant protein, 20 hours, CellTiter-Glo
[13] = read-out: APOL1 G0 Trypanosome Rescue EC50, Trypanosoma brucei Lister 427 VSG221 with APOL1 G0 recombinant protein, 20 hours, CellTiter-Glo
[14] = read-out: APOL1 G2 Trypanosome Rescue EC50, Trypanosoma brucei Lister 427 VSG221 with APOL1 G2 recombinant protein, 20 hours, CellTiter-Glo

Row | Compound | EC50 [1, 6] | EC50 [2, 7] | EC50 [3, 8] | EC50 [4, 9] | EC50 [5, 10] | EC50 ([1]; HEK293 overexpressing APOL1 G2) | EC50 [2, 11] | EC50 [4, 12] | EC50 [3, 13] | EC50 [5, 14]
1 | C[C@]1(O)C[C@@H](N2C(=O)CCc3cc(OCCN4CCC5(CC4)C(=O)Nc4c(I)cc(Cl)cc45)cnc32)C1 [Compound 329, 5-chloro-7-iodo-1′-[2-({7-oxo-8-[(cis)-3-hydroxy-3-methylcyclobutyl]-5,6,7,8-tetrahydro-1,8-naphthyridin-3-yl}oxy)ethyl]-1,2-dihydrospiro[indole-3,4′-piperidin]-2-one] | 56.9 nM | 96.1 nM | 199 nM | 240 nM | 67.3 nM | – | – | – | – | –
2 | CC1(O)CC(CN2C(=O)CCc3cc(OCCN4CCC5(CC4)C(=O)Nc4ccc(Cl)cc45)cnc32)C1 (single isomer, unassigned) [Compound 313, 5-chloro-1′-{2-[(7-oxo-8-{[(cis) or (trans)-3-hydroxy-3-methylcyclobutyl]methyl}-5,6,7,8-tetrahydro-1,8-naphthyridin-3-yl)oxy]ethyl}-1,2-dihydrospiro[indole-3,4′-piperidin]-2-one] | – | – | 54.5 nM | – | 20.2 nM | 63.3 nM | 135 nM | 71.8 nM | – | –
3 | CC1(O)CC(CN2C(=O)CCc3cc(OCCN4CCC5(CC4)C(=O)Nc4ccc(C(F)F)cc45)cnc32)C1 (single isomer, unassigned) [Compound 312, 5-(difluoromethyl)-1′-{2-[(7-oxo-8-{[(trans) or (cis)-3-hydroxy-3-methylcyclobutyl]methyl}-5,6,7,8-tetrahydro-1,8-naphthyridin-3-yl)oxy]ethyl}-1,2-dihydrospiro[indole-3,4′-piperidin]-2-one] | – | – | – | – | – | 24.3 nM | 66.5 nM | 34.4 nM | 28.2 nM | 10.1 nM
4 | CC(=O)c1ncc(OCCN2CCC3(CC2)C(=O)Nc2ccc(Cl)cc23)cc1C(F)(F)F [Compound 294, 1′-(2-{[6-acetyl-5-(trifluoromethyl)pyridin-3-yl]oxy}ethyl)-5-chloro-1,2-dihydrospiro[indole-3,4′-piperidin]-2-one] | 23.3 nM | 65.6 nM | 61.9 nM | 89 nM | 21.4 nM | – | – | – | – | –
5 | C[C@]1(O)C[C@@H](n2c(=O)n(CO)c3cc(OCCN4CCC5(CC4)C(=O)Nc4ccc(Cl)cc45)cc(C(F)(F)F)c32)C1 [Compound 467, 5-chloro-1′-(2-{[3-(hydroxymethyl)-2-oxo-1-[(cis)-3-hydroxy-3-methylcyclobutyl]-7-(trifluoromethyl)-2,3-dihydro-1H-1,3-benzodiazol-5-yl]oxy}ethyl)-1,2-dihydrospiro[indole-3,4′-piperidin]-2-one] | 4.74 nM | 14.3 nM | 3.74 nM | 6.03 nM | 2.24 nM | – | – | – | – | –
6 | CS(=O)(=O)C1(c2ccc(OCCN3CCC4(CC3)C(=O)Nc3ccc(Cl)cc34)cc2)CC(O)C1 (centres unmarked) [Compound 268, 5-chloro-1′-{2-[4-(3-hydroxy-1-methanesulfonylcyclobutyl)phenoxy]ethyl}-1,2-dihydrospiro[indole-3,4′-piperidin]-2-one] | – | – | – | – | – | 53.4 nM | 211 nM | 121 nM | 108 nM | 32.7 nM
7 | O=C1CCc2cc(OCCN3CCC4(CC3)C(=O)Nc3ccc(Cl)cc34)cnc2N1[C@H]1C[C@@H](O)C1 [Compound 190, 5-chloro-1′-[2-({7-oxo-8-[(cis)-3-hydroxycyclobutyl]-5,6,7,8-tetrahydro-1,8-naphthyridin-3-yl}oxy)ethyl]-1,2-dihydrospiro[indole-3,4′-piperidin]-2-one] | 54.7 nM | 105 nM | 92.1 nM | 104 nM | 35.7 nM | – | – | – | – | –
8 | CS(=O)(=O)C1(c2ccc(OCCN3CCC4(CC3)C(=O)Nc3ccc(C(F)F)cc34)cc2)CC(O)C1 (single isomer, unassigned) [Compound 282, 5-(difluoromethyl)-1′-(2-{4-[(trans) or (cis)-3-hydroxy-1-methanesulfonylcyclobutyl]phenoxy}ethyl)-1,2-dihydrospiro[indole-3,4′-piperidin]-2-one] | – | – | – | – | – | 130 nM | 383 nM | 230 nM | 181 nM | 59.8 nM
9 | CC1(C)OCC(c2ncc(OCCN3CCC4(CC3)C(=O)Nc3ccc(Cl)cc34)cn2)O1 (centres unmarked) [Compound 441, 5-chloro-1′-(2-{[2-(2,2-dimethyl-1,3-dioxolan-4-yl)pyrimidin-5-yl]oxy}ethyl)-1,2-dihydrospiro[indole-3,4′-piperidin]-2-one] | 57.4 nM | 96.1 nM | 144 nM | 215 nM | 78.3 nM | – | – | – | – | –
10 | C[C@]1(O)C[C@@H](c2nc3cc(OCCN4CCC5(CC4)C(=O)Nc4ccc(Cl)cc45)cc(C(F)(F)F)c3[nH]2)C1 [Compound 466, 5-chloro-1′-[2-({2-[(cis)-3-hydroxy-3-methylcyclobutyl]-7-(trifluoromethyl)-1H-1,3-benzodiazol-5-yl}oxy)ethyl]-1,2-dihydrospiro[indole-3,4′-piperidin]-2-one] | 4.26 nM | 8.71 nM | 19.4 nM | 30.6 nM | 11.9 nM | – | – | – | – | –
